Experiment: A2B permeability (Papp) in MDCK-MDR1 cell monolayers
Format: in vitro ADME
Settings: dog, MDCK-MDR1 monolayer, apical to basolateral (A-B), 10 μM test compound, HBSS pH 7.4, duplicate
Procedure: Permeability Data for Compounds was Collected Using the Following Experimental Procedure:
MDCK-MDR1 cells obtained from the NIH (Rockville, Md., USA) are used between passage numbers 6-30. Cells are seeded onto Millipore Multiscreen Transwell plates at 3.4×10^5 cells/cm2. The cells are cultured in DMEM and media is changed on day 3. On day 4 the permeability study is performed. Cell culture and assay incubations are carried out at 37° C. in an atmosphere of 5% CO2 with a relative humidity of 95%. On the day of the assay, the monolayers are prepared by rinsing both apical and basolateral surfaces twice with Hanks Balanced Salt Solution (HBSS) at the desired pH warmed to 37° C. Cells are then incubated with HBSS at the desired pH in both apical and basolateral compartments for 40 min to stabilise physiological parameters.
The dosing solutions are prepared by diluting test compound with assay buffer to give a final test compound concentration of 10 μM (final DMSO concentration of 1% v/v). The fluorescent integrity marker lucifer yellow is also included in the dosing solution. Analytical standards are prepared from test compound DMSO dilutions and transferred to buffer, maintaining a 1% v/v DMSO concentration.
Typical assay buffer is composed of supplemented HBSS pH 7.4 but a range of other buffers and pH values can be used.
For assessment of A-B permeability, HBSS is removed from the apical compartment and replaced with test compound dosing solution. The apical compartment insert is then placed into a companion plate containing fresh buffer (containing 1% v/v DMSO). For assessment of B-A permeability, HBSS is removed from the companion plate and replaced with test compound dosing solution. Fresh buffer (containing 1% v/v DMSO) is added to the apical compartment insert, which is then placed into the companion plate.
At 60 min the apical compartment inserts and the companion plates are separated and apical and basolateral samples diluted for analysis.
Test compound permeability is assessed in duplicate. Compounds of known permeability characteristics are run as controls on each assay plate.
Test and control compounds are quantified by LC-MS/MS cassette analysis using a 7-point calibration with appropriate dilution of the samples. Cyprotex generic analytical conditions are used. The starting concentration (CO) is determined from the dosing solution and the experimental recovery calculated from CO and both apical and basolateral compartment concentrations.
The integrity of the monolayer throughout the experiment is checked by monitoring lucifer yellow permeation using fluorimetric analysis. Lucifer yellow permeation is high if monolayers have been damaged. If a lucifer yellow Papp value is above a pre-defined threshold in one well, but the derived Papp result for test compound or marker compound in that well is qualitatively similar to that determined in the remaining replicate well (within the lucifer yellow threshold) then, based upon the scientific judgment of the responsible scientist, the cell monolayer may be considered acceptable. If this is not the case, then the result from the affected monolayer is excluded and an n=1 result is reported, or the compound may be retested. If lucifer yellow Papp values are above the threshold in both replicate wells for a test compound, the compound is re-tested. If this re-occurs upon repeat in both wells then toxicity or inherent fluorescence of the test compound is assumed. No further experiments are performed in this instance.
The permeability coefficient (Papp) for each compound is calculated from the following equation: […]
Where dQ/dt is the rate of permeation of the drug across the cells, CO is the donor compartment concentration at time zero and A is the area of the cell monolayer. C0 is obtained from analysis of the dosing solution.

Papp A→B at 60 min, 10 μM [nm/s] | Structure (SMILES)
21.9 | CCn1cc(C(=O)N2CCOCC2)c(=O)c2cc(OC3Cc4ccccc4C3)cnc21 [Example 1, 1-Ethyl-6-indan-2-yloxy-3-(morpholine-4-carbonyl)-1,8-naphthyridin-4-one]
25.6 | CCn1cc(C(=O)N2CCO[C@H](C)C2)c(=O)c2cc(OC3Cc4ccccc4C3)cnc21 [Example 2, 1-Ethyl-6-indan-2-yloxy-3-[(2R)-2-methylmorpholine-4-carbonyl]-1,8-naphthyridin-4-one]
12.6 | CCn1cc(C(=O)N2CCOC(C)(C)C2)c(=O)c2cc(OC3Cc4ccccc4C3)cnc21 [Example 4, 3-(2,2-dimethylmorpholine-4-carbonyl)-1-ethyl-6-indan-2-yloxy-1,8-naphthyridin-4-one]
34.1 | CCn1cc(C(=O)N2C[C@@H](C)O[C@@H](C)C2)c(=O)c2cc(OC3Cc4ccccc4C3)cnc21 [Example 5, 3-[(2R,6S)-2,6-dimethylmorpholine-4-carbonyl]-1-ethyl-6-indan-2-yloxy-1,8-naphthyridin-4-one]
17 | CCn1cc(C(=O)N2C[C@H](C)O[C@@H](C)C2)c(=O)c2cc(OC3Cc4ccccc4C3)cnc21 [Example 6, 3-[(2S,6S)-2,6-dimethylmorpholine-4-carbonyl]-1-ethyl-6-indan-2-yloxy-1,8-naphthyridin-4-one]
17.9 | CCn1cc(C(=O)N2C[C@@H](C)O[C@H](C)C2)c(=O)c2cc(OC3Cc4ccccc4C3)cnc21 [Example 7, 3-[(2R,6R)-2,6-dimethylmorpholine-4-carbonyl]-1-ethyl-6-indan-2-yloxy-1,8-naphthyridin-4-one]
26.5 | CCn1cc(C(=O)N2CC(C)(C)OC(C)(C)C2)c(=O)c2cc(OC3Cc4ccccc4C3)cnc21 [Example 8, 1-Ethyl-6-indan-2-yloxy-3-(2,2,6,6-tetramethylmorpholine-4-carbonyl)-1,8-naphthyridin-4-one]
19.9 | CCn1cc(C(=O)N2[C@H](C)COC[C@@H]2C)c(=O)c2cc(OC3Cc4ccccc4C3)cnc21 [Example 10, 3-[(3R,5S)-3,5-dimethylmorpholine-4-carbonyl]-1-ethyl-6-indan-2-yloxy-1,8-naphthyridin-4-one]
38.3 | CCn1cc(C(=O)N2[C@H](C)COC[C@H]2C)c(=O)c2cc(OC3Cc4ccccc4C3)cnc21 [Example 11, 3-[(3R,5R)-3,5-dimethylmorpholine-4-carbonyl]-1-ethyl-6-indan-2-yloxy-1,8-naphthyridin-4-one]
8.7 | CCn1cc(C(=O)N2C[C@H]3C[C@@H]2CO3)c(=O)c2cc(OC3Cc4ccccc4C3)cnc21 [Example 17, 1-Ethyl-6-indan-2-yloxy-3-[(1R,4R)-2-oxa-5-azabicyclo[2.2.1]heptane-5-carbonyl]-1,8-naphthyridin-4-one]
17.9 | CCn1cc(C(=O)N2CC3CCC(C2)O3)c(=O)c2cc(OC3Cc4ccccc4C3)cnc21 [Example 19, 1-Ethyl-6-indan-2-yloxy-3-(8-oxa-3-azabicyclo[3.2.1]octane-3-carbonyl)-1,8-naphthyridin-4-one]
15.6 | CCn1cc(C(=O)N2CCOCC2)c(=O)c2cc(OC3Cc4ccccc4C3)ncc21 [Example 26, 1-Ethyl-6-indan-2-yloxy-3-(morpholine-4-carbonyl)-1,7-naphthyridin-4-one]
47.8 | CCn1cc(C(=O)N2CCOCC2)c(=O)c2cc(OC3Cc4ccccc4C3)nnc21 [Example 52, 8-Ethyl-3-indan-2-yloxy-6-(morpholine-4-carbonyl)pyrido[2,3-c]pyridazin-5-one]
15.5 | CCn1cc(C(=O)N2CC3CCC(C2)O3)c(=O)c2cc(OC3Cc4ccccc4C3)nnc21 [Example 63, 8-Ethyl-3-indan-2-yloxy-6-(8-oxa-3-azabicyclo[3.2.1]octane-3-carbonyl)pyrido[2,3-c]pyridazin-5-one]
9.8 | CCn1cc(C(=O)N2CC3COCC(C3)C2)c(=O)c2cc(OC3Cc4ccccc4C3)nnc21 [Example 65, 8-Ethyl-3-indan-2-yloxy-6-(3-oxa-7-azabicyclo[3.3.1]nonane-7-carbonyl)pyrido[2,3-c]pyridazin-5-one]

Structure (SMILES) | Papp A→B at 60 min, 10 μM [nm/s]
CCn1cc(C(=O)N2C3COCC2C3)c(=O)c2cc(OC3Cc4ccccc4C3)cnc21 [Example 16, 1-Ethyl-6-indan-2-yloxy-3-(3-oxa-6-azabicyclo[3.1.1]heptane-6-carbonyl)-1,8-naphthyridin-4-one] | 20.6
CCn1cc(C(=O)N2C3CCC2COC3)c(=O)c2cc(OC3Cc4ccccc4C3)cnc21 [Example 18, 1-Ethyl-6-indan-2-yloxy-3-(3-oxa-8-azabicyclo[3.2.1]octane-8-carbonyl)-1,8-naphthyridin-4-one] | 14.1
CCn1cc(C(=O)N2C3CCCC2COC3)c(=O)c2cc(OC3Cc4ccccc4C3)cnc21 [Example 20, 1-Ethyl-6-indan-2-yloxy-3-(3-oxa-9-azabicyclo[3.3.1]nonane-9-carbonyl)-1,8-naphthyridin-4-one] | 20.1
CCn1cc(C(=O)N2CC3(CCOCC3)C2)c(=O)c2cc(OC3Cc4ccccc4C3)cnc21 [Example 23, 1-Ethyl-6-indan-2-yloxy-3-(7-oxa-2-azaspiro[3.5]nonane-2-carbonyl)-1,8-naphthyridin-4-one] | 12.4
